For this assay, the system named is TNFα. The assay can be described thus: Effect on TNFα expression, cell based immunoassay in RAW 264.7 cells. Further details: species or system mouse. The method, then: This was carried out using a cell based immunoassay using mouse monocyte/macrophage cells (RAW 264.7; ATCC American Tissue Culture Collection). The experiment was done in triplicates. The data were analyzed by t-test. […] Based on this tryptophan is an ant-inflammatory amino acid.

Consider 1 molecule from patent US20100063127A1, “Antioxidant Properties of Tryptophan from Human Milk” (priority 2008, published 2010).

As to `N[C@@H](Cc1c[nH]c2ccccc12)C(=O)O` [Tryptophan], the TNFα (Tryptophan 50 μg/ml, control Medium + LPS 1 μg/ml 6156, triplicates) was determined as 4869 pg/mL. Further, where the note is “p<0.05”, the “TNFα, treated value versus control value (t-test)” value is listed as “significant difference”.
